Results as given in the supplement of paper PMC10307832.

Tests used:
Test in all cases: relative viability (nuclei count vs DMSO), 5 days (fraction); higher = more cells survive
XMD14-99 + Decitabine = compound: CN1CCN(CC1)C2=CC(=C(C=C2)NC3=NC(=C(S3)C(=O)C4=C(C=CC=C4Cl)Cl)N)OC [XMD14-99] + Nc1ncn([C@H]2C[C@H](O)[C@@H](CO)O2)c(=O)n1 [Decitabine] (partner 2 µM)
How it was run: (§1)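 Lung cancer cell lines were pin-tool dosed in 1536-well plates on the day after seeding, with either a lone drug or a fixed anchor-drug dose plus five library-drug doses (not always all listed) in √10 steps. Nuclei were counted on 4× images after 5 days. Relative viability is the ratio of treated-well to vehicle-well nuclei counts, with each value a median of duplicate plates.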

AZD1208 + Lapatinib = compound: N[C@@H]1CCCN(c2c(/C=C3\SC(=O)NC3=O)cccc2-c2ccccc2)C1 [AZD1208] + CS(=O)(=O)CCNCc1ccc(-c2ccc3ncnc(Nc4ccc(OCc5cccc(F)c5)c(Cl)c4)c3c2)o1 [Lapatinib] (partner 2 µM)
How it was run: as §1

AZD1208 + Alpelisib = compound: N[C@@H]1CCCN(c2c(/C=C3\SC(=O)NC3=O)cccc2-c2ccccc2)C1 [AZD1208] + Cc1nc(NC(=O)N2CCC[C@H]2C(N)=O)sc1-c1ccnc(C(C)(C)C(F)(F)F)c1 [Alpelisib] (partner 2 µM)
How it was run: as §1

XMD14-99 + Alpelisib = compound: CN1CCN(CC1)C2=CC(=C(C=C2)NC3=NC(=C(S3)C(=O)C4=C(C=CC=C4Cl)Cl)N)OC [XMD14-99] + Cc1nc(NC(=O)N2CCC[C@H]2C(N)=O)sc1-c1ccnc(C(C)(C)C(F)(F)F)c1 [Alpelisib] (partner 2 µM)
How it was run: as §1

Cell Line	relative viability (XMD14-99 + Decitabine; first compound 0.08 µM)	relative viability (XMD14-99 + Decitabine; first compound 0.8 µM)	relative viability (XMD14-99 + Decitabine; first compound 2.53 µM)	relative viability (XMD14-99 + Decitabine; first compound 8 µM)	relative viability (AZD1208 + Lapatinib; first compound 0.08 µM)	relative viability (AZD1208 + Lapatinib; first compound 0.253 µM)	relative viability (AZD1208 + Lapatinib; first compound 0.8 µM)	relative viability (AZD1208 + Lapatinib; first compound 2.53 µM)	relative viability (AZD1208 + Lapatinib; first compound 8 µM)	relative viability (AZD1208 + Alpelisib; first compound 0.08 µM)	relative viability (AZD1208 + Alpelisib; first compound 0.253 µM)	relative viability (AZD1208 + Alpelisib; first compound 0.8 µM)	relative viability (AZD1208 + Alpelisib; first compound 2.53 µM)	relative viability (AZD1208 + Alpelisib; first compound 8 µM)	relative viability (XMD14-99 + Alpelisib; first compound 0.08 µM)	relative viability (XMD14-99 + Alpelisib; first compound 0.8 µM)	relative viability (XMD14-99 + Alpelisib; first compound 2.53 µM)	relative viability (XMD14-99 + Alpelisib; first compound 8 µM)
HCC-366	0.32	0.363	0.347	0.291	1.06	1.17	0.951	1.13	0.933	0.453	0.362	0.337	0.27	0.227	0.475	0.413	0.366	0.232
HCC-827	0.354	0.273	0.296	0.306	0.15	0.192	0.189	0.173	0.226	0.969	1.04	0.915	0.859	0.893	1.05	0.902	0.948	0.741
HOP-62	0.23	0.226	0.237	0.273	1.14	1.05	0.985	0.875	0.889	1.04	0.919	0.82	0.764	0.896	0.883	1	1.04	0.818
IA-LM					0.766	0.948	0.766	0.621	0.633	0.83	0.617	0.826	0.837	0.569	0.72	0.638	0.515	0.456
LC-2-ad	0.776	0.727	0.777	0.745	0.961	1.01	1.04	0.94	1.03	0.816	0.592	0.787	0.894	0.794	0.855	0.863	0.839	0.633
LCLC-97TM1	0.226	0.233	0.236	0.255	1.03	0.92		0.882	0.546	0.267	0.212		0.169	0.199	0.263	0.201	0.202	0.202
LCLC-103H	0.715	0.739	0.721	0.682						0.904	0.985	0.863	0.884	0.774	0.867	1.04	0.959	0.863
LK-2	0.258	0.297	0.328	0.21	0.738	0.616	0.63	0.39	0.447	0.85	0.759	0.618	0.567	0.477	1.01	1.11	0.855	1.05
LOU-NH91	0.868	0.853	0.807	0.776	0.727	0.704	0.662	0.703	0.583	0.72	0.719	0.632	0.681	0.673	0.72	0.804	0.735	0.622
LU99A	0.852	0.918	0.784	0.669	0.864	0.985	0.937	0.919	0.728	0.497	0.481	0.462	0.429	0.345	0.511	0.547	0.46	0.415
LXF-289	0.378	0.371	0.37	0.36	0.941	0.954	0.917	0.958	0.868	1.05	1.13	1.01	1.03	1.03	1	0.971	1.02	0.835
NCI-H23	0.288	0.262	0.338	0.309	1.06	1.22	0.945	0.98	0.735	0.658	0.58	0.493	0.564	0.561	0.608	0.657	0.69	0.491
NCI-H322M	0.684	0.667	0.706	0.645	0.574	0.568	0.507	0.578	0.56	0.718	0.718	0.75	0.73	0.821	0.889	0.709	0.64	0.767
NCI-H441	0.279	0.242	0.308	0.234						0.55	0.787	0.617	0.466	0.446	0.773	0.598	0.68	0.706
NCI-H522	0.703	0.648	0.554	0.672														
NCI-H1299					0.984	0.938	0.96	1	0.945	1.08	1.08	1.07	1.03	1.13	1.05	1.04	1.05	0.884
NCI-H1563					0.918	1	1.02	1.01	0.915	0.898	0.826	0.954	0.951	0.834	0.85	0.894	0.957	0.869
NCI-H1648	0.47	0.501	0.479	0.455														
NCI-H1650	0.393	0.418	0.41	0.338	0.777	0.878	0.735	0.602	0.667									
NCI-H1703					0.852	1.04	0.804	1.05	0.626	0.338	0.302	0.301	0.31	0.287	0.338	0.36	0.487	0.334
NCI-H2228					1.03	1.3	0.971		0.652	0.706	0.629	0.609		0.466	0.927	0.528	0.492	0.188
NCI-H2342	0.724	0.739	0.765	0.638														
SW 900	0.413	0.443	0.386	0.419														
